Reference: article PMC4389443 (Respiratory Research, 2015)

How the values were obtained:
normal volunteers [1] = system: normal volunteers; parameters: method as in PMID 19643947, PMID 21426372, PMID 24341382; conditions: cited from earlier work
BALB/c mice [2] = assay: Klebsiella pneumoniae lung infection; conditions: 24 hours
BALB/c mice [3] = assay: LPS airway inflammation, 6 hour time point; conditions: 6 hours after LPS; PXS-4728A 0.2 or 2 mg.kg^−1, dexamethasone 10 mg.kg^−1, oral 1 hour prior
C57/BL6 mice = assay: Cecal ligation and puncture (CLP) induced sepsis; conditions: 6 hours; PXS-4728A 6 mg.kg^−1, dexamethasone 5 mg.kg^−1, oral 1 hour prior to surgery
BALB/c mice [4] = assay: House dust mite/Rhinovirus exacerbated asthma model; assay type: in vivo, mouse; conditions: 24 hours post RV1b infection; for Total BALF neutrophils: PXS-4728A 2, dexamethasone 2, azithromycin 25 mg.kg^−1 ip.
Procedure: Study performed at the University of Newcastle under local ethics committee. BALB/c mice were sensitized and challenged intranasally to 50 μg of crude HDM extract (Dermatophagoides pteronyssinus extract was obtained from Greer Laboratories) on days 0, 1 and 2 followed by four exposures of 5 μg HDM daily from day 14 to day 17 delivered in 50 μl of sterile saline. Animals were then infected on day 18 with infective Human Rhinovirus 1b RV1B41 (2.5 × 10^6 median tissue culture infective dose) intranasally. Mice were intranasally administered 50 μl infective or ultraviolet light (UV)–inactivated RV1B41. Mice were euthanized 24 hours after the rhinovirus challenge. BAL analysis was performed for total and differential counts and airway hyperreactivity (AHR) was assessed invasively by measurement of total lung resistance and dynamic compliance (BUXCO) in response to methacholine challenge as previously described. […]. Dose of azithromycin was chosen based on previously described findings, in respiratory viral infection models.

[5] = system: patients with severe neutrophilic asthma; parameters: method as in PMID 23291349; conditions: significance lost when all patients analysed together; cited from earlier work
normal volunteers [6] = system: normal volunteers; parameters: method as in PMID 19643947, PMID 21426372, PMID 24341382; conditions: cited from earlier work; remark: listed apart in the source
[7] = PXS-4728A 6 mg.kg^−1, dexamethasone 10 mg.kg^−1, oral 1 hour prior to infection

C[C@H](CO)Nc1nc(SCc2cccc(F)c2F)nc2[nH]c(=O)sc12 [AZD8309]
Efficacy during inhaled LPS challenge (normal volunteers [1]): efficacious

C[C@@H]1C[C@H]2[C@@H]3CCC4=CC(=O)C=C[C@]4(C)[C@@]3(F)[C@@H](O)C[C@]2(C)[C@@]1(O)C(=O)CO [dexamethasone, reference compound]
Neutrophil migration into the airway spaces (BALF) (BALB/c mice [2]; [7]): significantly dampened | Total leukocyte migration into the airway spaces (BALF) (BALB/c mice [2]; [7]): significantly dampened | Log 10-CFU in the lung (bacterial load), average (BALB/c mice [2]; PXS-4728A 6 mg.kg^−1, dexamethasone 10 mg.kg^−1, vehicle 7.59): 8.86 LOG 10-CFU | Influx of neutrophils in BALF (BALB/c mice [3]): reduction | Peritoneal neutrophils (C57/BL6 mice): greatly diminished | Total peritoneal inflammatory cells (C57/BL6 mice): greatly diminished | Total BALF neutrophils (BALB/c mice [4]): no impact

CC[C@H]1OC(=O)[C@H](C)[C@@H](O[C@H]2C[C@@](C)(OC)[C@@H](O)[C@H](C)O2)[C@H](C)[C@@H](O[C@@H]2O[C@H](C)C[C@H](N(C)C)[C@H]2O)[C@](C)(O)C[C@@H](C)CN(C)[C@H](C)[C@@H](O)[C@]1(C)O [azithromycin]
Exacerbation rates [5]: reduced exacerbation rates | Airways hyperreactivity to methacholine challenge (BALB/c mice [4]; PXS-4728A 2, azithromycin 25 mg.kg^−1 ip.): significantly reduced | Total BALF neutrophils (BALB/c mice [4]): significantly dampened

O=C(Nc1ccc(Cl)c(S(=O)(=O)N2CCNCC2)c1O)Nc1cccc(F)c1Cl [SB-656933]
Increased neutrophil content in sputum as a result of ozone challenge (normal volunteers [6]): inhibit

CC[C@@H](Nc1c(Nc2cccc(C(=O)N(C)C)c2O)c(=O)c1=O)c1ccc(C)o1 [SCH527123]
Increased neutrophil content in sputum as a result of ozone challenge (normal volunteers [6]): inhibit
